Assay results as given in patent US9504755B2, “Multi-arm polymeric alkanoate conjugates” (Nektar Therapeutics, priority 2008, dated 2016).
Marks after values point to notes of the source that are not given here.

What was measured:
[1] = Pharmacokinetics after IV infusion in Beagle dogs; type: in vivo, dog; settings: Beagle, dog, plasma, male dogs, single IV dose 0.75 mg/kg
Protocol: The objective of the study was to assess the pharmacokinetics and excretion of docetaxel and 4-ARM-PEG20K-BA-docetaxel after intravenous infusion to dogs.
Pharmacokinetics were evaluated in male dogs (4 dogs/dose level) dosed with 0, 0.75, 2, or 4 mg/kg (0, 15, 40, and 80 mg/m^2/dose) of 4-ARM-PEG20K-BA-docetaxel or 0.75 mg/kg (15 mg/m^2) docetaxel. 4-ARM-PEG20K-BA-docetaxel and docetaxel were administered via a cephalic or saphenous vein disposable catheter as 60-min intravenous infusions at 4 mL/kg/hr. Seventeen blood samples were obtained by jugular venipuncture or Abbacoth IV catheter between 0 and 168 hr post-dose. Plasma concentrations of 4-ARM-PEG20K-BA-docetaxel and docetaxel were determined.

LS174T tumors = assay: Anti-tumor activity in LS174T colorectal mouse xenograft model; type: in vivo
Protocol: (§1) H460, LS174T and LoVo tumors were established in female athymic nude mice. Groups of 10 mice received a total of three single doses of 4-ARM-PEG20K-BA-DOC or docetaxel administered every 7 days (q7d×3) at several doses up to a maximum tolerated dose (MTD). Control groups received no treatment after tumor implant. Animals were weighed daily for the first five days and twice weekly thereafter. Tumor volumes were measured twice weekly after the first drug injection.
(§2) Anti-tumor activity was measured as changes in tumor volume, time to reach endpoint, and complete or partial tumor regression.
(§3) Treatment outcome was evaluated by Tumor Growth Delay (TGD), which is defined as the increase in median time to endpoint in a treatment group compared to the control group. Here it is expressed as % TGD, as a percentage to the median time to endpoint of the control group.
(§4) A tumor whose volume was reduced to 50% or less for three consecutive measurements compared to its volume on Day 1 was considered to be in partial regression. Complete regression was defined as volume […] 13.5 mm^3 for three consecutive measurements.
(§5) Acceptable toxicity was defined as a group mean body weight (BW) loss of less than 20% during the study and not more than one treatment-related death among ten treated animals.

H460 tumors = assay: Anti-tumor activity in H460 non-small cell lung mouse xenograft model; type: in vivo
Protocol: as §1, §2, §3, §4, §5

[2] = Plasma and tumor pharmacokinetics in H460 tumor-bearing nude mice; type: in vivo, mouse; settings: female, HRLN nude, mouse, in vivo, iv
Protocol: To assess whether the improved antitumor activity was due to greater plasma and tumor docetaxel exposure following 4-ARM-PEG20K-BA-DOC administration, plasma and tumor homogenates were analyzed after a single IV administration of 4-ARM-PEG20K-BA-DOC or docetaxel in mice bearing H460 tumors. In looking at each of 4-ARM-PEG20K-BA-DOC and docetaxel dosed at their respective maximum tolerated doses (MTDs) of 33 and 25 mg/kg, the following was observed. […] The maximum plasma docetaxel concentration with 4-ARM-PEG20K-BA-DOC was 13-fold lower than that with docetaxel.
The objective of this study was to compare docetaxel pharmacokinetics following 4-ARM-PEG20K-BA-docetaxel with that following docetaxel administration, in plasma and tumor tissue of athymic female mice bearing H460 NSCLC tumors and to determine the effects on complete blood counts. This example summarizes the pharmacokinetic results.
H460 tumor cells were grown in vitro and implanted subcutaneously into female HRLN nude mice. When tumor sizes reached between 172 and 288 mg, animals were dosed by intravenous bolus injection with 25 mg/kg docetaxel or 33 mg/kg 4-ARM-PEG20K-BA-docetaxel at a dosing volume of 10 mL/kg. These dose levels correspond to the maximum tolerated doses for docetaxel and 4-ARM-PEG20K-BA-docetaxel administered on a q7d×3 schedule in this tumor model. Blood and tumor samples (n=7 timepoints with n=3/timepoint) were collected from 0 to 7 days after IV injection. Plasma and tumor samples were analyzed for docetaxel and 4-ARM-PEG20K-BA-docetaxel.

[3] = 12.7 mg/kg (38.1 mg/m^2), q7d×3
[4] = 16.9 mg/kg (50.7 mg/m^2), q7d×3
[5] = 22.5 mg/kg (67.5 mg/m^2), q7d×3
[6] = 30 mg/kg (90 mg/m^2), q7d×3 (MTD of docetaxel)
[7] = 30 mg/kg (90 mg/m^2), q7d×3 (MTD of docetaxel), listed as docetaxel
[8] = 18.7 mg/kg (56.1 mg/m^2), q7d×3
[9] = 25 mg/kg (75 mg/m^2), q7d×3 (MTD of docetaxel)
[10] = 25 mg/kg, analyte docetaxel, tumor

## CC(=O)O[C@@]12CO[C@@H]1C[C@H](O)[C@@]1(C)C(=O)[C@H](O)C3=C(C)[C@@H](OC(=O)[C@H](O)[C@@H](NC(=O)OC(C)(C)C)c4ccccc4)C[C@@](O)([C@@H](OC(=O)c4ccccc4)[C@H]21)C3(C)C [Docetaxel, reference compound]
[1]; read-out: AUClast, analyte docetaxel
  AUC(0-t): 479 ng·h/mL
[1]; read-out: Cmax, analyte docetaxel
  Cmax: 223 ng/mL
[1]; read-out: Tmax, analyte docetaxel
  Tmax: 52.8 min
LS174T tumors; [3]
  BW Loss (%): 8.8%
  Day of BW Nadir: 23
  No. Surviving/No. Treated Mice: 10/10
  PR (partial regressions): 0
  TGD (%): 69* %
LS174T tumors; [4]
  BW Loss (%): 11.2%
  Day of BW Nadir: 23
  No. Surviving/No. Treated Mice: 10/10
  PR (partial regressions): 0
  TGD (%): 96* %
LS174T tumors; [5]
  BW Loss (%): 6.7%
  Day of BW Nadir: 23
  No. Surviving/No. Treated Mice: 10/10
  PR (partial regressions): 0
  TGD (%): 135* %
LS174T tumors; 30 mg/kg (90 mg/m^2), q7d×3
  Day of BW Nadir: 23
  No. Surviving/No. Treated Mice: 10/10
LS174T tumors; [6]
  BW Loss (%): 16.6%
  PR (partial regressions): 0
  TGD (%): 166* %
LS174T tumors; [7]
  PR (partial regressions): no partial regressions
  TGD (%): 166%
H460 tumors; 10 mg/kg (30 mg/m^2), q7d×3
  BW Loss (%): 0/0%
  No. Surviving/No. Treated Mice: 10/10
  TGD (%): −2%
H460 tumors; 14 mg/kg (42 mg/m^2), q7d×3
  BW Loss (%): 4.1%
  Day of BW Nadir: 19
  No. Surviving/No. Treated Mice: 10/10
  TGD (%): 4%
H460 tumors; [8]
  BW Loss (%): 9.7%
  Day of BW Nadir: 22
  No. Surviving/No. Treated Mice: 10/10
  TGD (%): 23%
H460 tumors; 25 mg/kg (75 mg/m^2), q7d×3
  Day of BW Nadir: 26
  No. Surviving/No. Treated Mice: 10/10
H460 tumors; [9]
  BW Loss (%): 15.5%
  TGD (%): 48%
H460 tumors; 25 mg/kg (75 mg/m^2), q7d×3 (MTD of docetaxel), listed as docetaxel
  TGD (%): 48%
H460 tumors; 4-ARM-PEG20K-BA-DOC at 19 mg/kg (58% of its MTD), docetaxel doses less than 25 mg/kg
  antitumor activity below MTD: did not
[2]; 25 mg/kg
  concentration at 72 hr: < 1 ng/mL
[2]; 25 mg/kg, AUClast, analyte docetaxel, tumor
  AUC(0-t): 139000 ng·h/mL
[2]; 25 mg/kg, analyte docetaxel, plasma
  Cmax: 2570 ng/mL
[2]; [10]
  Cmax: 2340 ng/mL
  Tmax: 240 min
[2]; analyte docetaxel, plasma
  Tmax: 30 min
[2]; analyte docetaxel, tumor
  Tmax: ≤ 240 min
